Measurements as given in BindingDB's records for patent US20250215012 (University of Michigan, 2025).

Target: DNA damage-binding protein 1/Protein cereblon (Homo sapiens, UniProt Q96SW2)
Assay: Not found
Description: Not found

Chain of DNA damage-binding protein 1/Protein cereblon (Q16531 whole entry): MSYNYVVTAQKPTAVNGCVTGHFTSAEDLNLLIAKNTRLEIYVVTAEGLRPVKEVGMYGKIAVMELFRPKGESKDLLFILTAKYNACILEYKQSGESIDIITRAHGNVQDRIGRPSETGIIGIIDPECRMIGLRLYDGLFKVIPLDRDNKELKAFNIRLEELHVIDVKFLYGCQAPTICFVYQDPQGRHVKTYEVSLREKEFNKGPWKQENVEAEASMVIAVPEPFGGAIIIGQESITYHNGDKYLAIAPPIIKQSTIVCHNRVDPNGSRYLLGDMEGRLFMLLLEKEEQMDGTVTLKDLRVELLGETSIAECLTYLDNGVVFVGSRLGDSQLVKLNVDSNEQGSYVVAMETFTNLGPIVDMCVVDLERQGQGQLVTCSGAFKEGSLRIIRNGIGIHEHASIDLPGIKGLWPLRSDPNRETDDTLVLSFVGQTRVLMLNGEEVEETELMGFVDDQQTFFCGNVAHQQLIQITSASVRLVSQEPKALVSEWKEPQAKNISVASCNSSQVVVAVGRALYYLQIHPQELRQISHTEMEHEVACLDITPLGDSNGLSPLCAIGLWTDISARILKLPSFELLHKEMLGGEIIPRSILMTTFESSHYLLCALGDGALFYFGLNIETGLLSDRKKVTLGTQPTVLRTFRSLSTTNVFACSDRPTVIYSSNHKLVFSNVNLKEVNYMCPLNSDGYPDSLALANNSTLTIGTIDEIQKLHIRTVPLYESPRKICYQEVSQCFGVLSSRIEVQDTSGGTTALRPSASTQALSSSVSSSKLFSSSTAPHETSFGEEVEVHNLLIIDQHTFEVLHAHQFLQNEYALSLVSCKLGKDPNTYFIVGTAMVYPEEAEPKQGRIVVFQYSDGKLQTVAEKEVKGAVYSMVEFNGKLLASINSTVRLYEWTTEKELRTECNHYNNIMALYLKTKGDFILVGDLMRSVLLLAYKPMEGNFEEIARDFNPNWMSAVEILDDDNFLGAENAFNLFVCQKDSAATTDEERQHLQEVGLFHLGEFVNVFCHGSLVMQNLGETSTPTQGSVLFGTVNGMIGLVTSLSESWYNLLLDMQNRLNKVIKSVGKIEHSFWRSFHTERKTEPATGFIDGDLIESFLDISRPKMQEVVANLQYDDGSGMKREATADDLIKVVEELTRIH
Chain of DNA damage-binding protein 1/Protein cereblon (Q96SW2 whole entry): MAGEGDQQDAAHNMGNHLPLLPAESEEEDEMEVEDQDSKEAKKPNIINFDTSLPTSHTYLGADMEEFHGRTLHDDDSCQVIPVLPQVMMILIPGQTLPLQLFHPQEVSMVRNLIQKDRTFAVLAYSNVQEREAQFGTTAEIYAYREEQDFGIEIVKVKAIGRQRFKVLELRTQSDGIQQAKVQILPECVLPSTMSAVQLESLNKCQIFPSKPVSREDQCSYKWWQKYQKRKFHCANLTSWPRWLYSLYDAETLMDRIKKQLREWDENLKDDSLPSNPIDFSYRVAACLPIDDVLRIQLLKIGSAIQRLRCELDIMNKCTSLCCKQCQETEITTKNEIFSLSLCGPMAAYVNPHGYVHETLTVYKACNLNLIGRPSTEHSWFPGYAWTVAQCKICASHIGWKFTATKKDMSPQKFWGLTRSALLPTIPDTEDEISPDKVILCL

SMILES	IC50 [nM]
O=C1CC[C@H](N2Cc3c(ccc4c3OCC43CCN(Cc4ccc5cn[nH]c5c4)CC3(F)F)C2=O)C(=O)N1 (some centres not stated) [US20250215012, Example B33]	100 to 500
Cn1ncc2ccc(CN3CCC4(COc5c4ccc4c5CN([C@H]5CCC(=O)NC5=O)C4=O)C(F)(F)C3)cc21 (some centres not stated) [US20250215012, Example B34]	100 to 500
